Two compounds from US4914096A, “6-aryl-substituted-4H-thieno(2,3-e)(1,2,4)triazolo(3,4-c)(1,4)diazepines” (priority 1989, dated 1990) can be followed below.

Assay [1] has as its target T1, Human Platelet PAF Receptor (Homo sapiens, UniProt P25105).
T1 construct: endogenous in cells; host or cells: washed platelets from the blood of healthy human donors
The experiment in a line: Human Platelet PAF Receptor Assay test (Test A). Format: binding. How it is done: Human blood is obtained by venipuncture of healthy, human donors into an anti-coagulant mixture containing 3.15% of trisodium citrate and 20 μg/ml of Prostaglandin I2 (PGI2) in a ratio of blood to anti-coagulant of 9:1. Platelet rich plama (PRP) is prepared by centrifugation (250×g) of the blood for 20 minutes at room temperature. The PRP is then centrifuged (900×g) for 10 minutes at room temperature and the platelet pellet is washed two times with Tris-Tyrode's (TT) solution having a pH of 7.4 and containing 0.25% bovine serum albumin (BSA), and to which has been added PGI2 at a final concentration of […]. The platelets are resuspended at […] in TT/BSA containing 1.4 mM CaCl2.2H2 O and 0.7 mM MgCl2.6H2 O. All of the tests are conducted in duplicate and each of the test compounds is evaluated at concentrations of 100, 50, 1 and 0.1 μM. […]
Each mixture is allowed to incubate at room temperature for one hour, after which time the reaction is terminated by the addition of 500 μl of ice cold TT/BSA and centrifugation (900×g) at 4° C. for 10 minutes. […] An additional 2 ml. of Scintiverse II is then added to the vials and, after mixing, the vials are counted for 1 minute in a liquid scintillation spectrometer. The amount of specific binding is calculated as the difference in cpm between the total bound (^3 H)-PAF and non-specifically bound (^3 H)-PAF. […]

In assay [2] the test system is PAF-mediated extravasation. The experiment in a line: PAF-induced Extravasation test (Test C). Format: in vivo, guinea pigs. The following applies: Cavia porcellus, po, read-out: Test C ED50.
Assay [3] deals with PAF-mediated bronchoconstriction. The assay can be described thus: PAF-induced Pulmonary Inflation Pressure (PIP) Increase test (Test B). To be noted: Cavia porcellus, po, read-out: Test B ED50. Format: in vivo, guinea pigs. How it is done: Furthermore, in view of their usefulness as PAF receptor antagonists, the compounds of formula I have been found useful as inhibitors of PAF-mediated bronchoconstriction, which property was evaluated by the PAF-induced Pulmonary Inflation Pressure (PIP) Increase test (Test B) as follows:
Male guinea pigs, weighing between 300 and 400 gm, are anesthetized, after which time trachea tube, carotid and jugular catheters are inserted. The test animal is then force ventilated employing a small animal Harvard respirator and the resistance to lung inflation (PIP) is measured utilizing a pressure transducer and recorder. The test compound is administered orally at 30 minutes prior to, intravenously (jugular) at 5 minutes prior to, or intraarterially at 1 to 5 minutes prior to the introduction of PAF. […] Any blood pressure measurements taken are recorded from a transducer attached to the carotid catheter. […] A reading at 15 minutes after the administration of PAF is termed the endpoint PIP. The effect of the test compound on the PIP response is determined by the difference between the percent increase in maximal PIP over baseline for the test animal to which has been administered PAF and the test compound compared to the test animal to which only PAF has been administered to generate an ED 5 C (dose needed to effect a 50% response).

For assay [4], the system named is PAF-induced human platelet aggregation. The experiment in a line: Platelet Aggregation Inhibition Assay test (PAIA test). Format: cell-based. The following applies: C-16 PAF 0.1 μM or 0.01 μM; human platelet rich plasma. How it is done:
All of the compounds of formula I, as well as their pharmaceutically acceptable acid addition salts, are useful as platelet activating factor inhibitors as indicated by their ability to inhibit platelet activating factor (PAF)-induced human platelet aggregation in vitro according to the Platelet Aggregation Inhibition Assay test (PAIA test) as follows:
Human subjects are kept aspirin free for one week and fasted overnight. Platelet rich plasma (PRP) is prepared by centrifugation (200×g.) of freshly drawn blood, anti-coagulated within 0.38% sodium citrate (final concentration). Platelet count is adjusted to 250,000 per μl using platelet poor plasma (PPP) obtained by a second centrifugation (700×g.) of the blood sample. An aliquot (0.38 ml) of the PRP is dispensed into cuvettes and maintained at room temperature (22° C.) until used (but for not more than two hours). […] The aggregation response is quantitated by determining the area under the curve (AUC). The AUC calculated for the inducing agent alone is considered to be one hundred percent. The potential percent inhibition of the aggregation response is determined by dividing the AUC generated in the presence of the compound by the AUC of the inducing agent alone, multiplying by 100 and then subtracting from 100.

A further assay concerns PAF-induced hypotension. To be noted: rat; for decrease in blood pressure: within 10 sec. The method, then: Male Wistar rats, weighing approximately 300 gm, are anesthetized and their carotid arteries cannulated to enable their diastolic and systolic arterial blood pressure measurements to be recorded. PAF is then administered intravenously at either 100 or 500 ng/kg, and the blood pressure drop (within 10 sec.) and recovery time required to reach the pre-injection blood pressure level are measured. […] In order to measure the effectiveness of a compound for both the inhibition of blood pressure decreases and shortening of the recovery time, the test compound is administered intravenously over a range of between 5 and 7 dosage levels (1 or 2 test animals per dose) and between 1 and 5 minutes prior to the introduction of PAF to generate an ED50.

Read-outs that look alike come from different tables or passages of the source.

T1 sequence (P25105 whole entry): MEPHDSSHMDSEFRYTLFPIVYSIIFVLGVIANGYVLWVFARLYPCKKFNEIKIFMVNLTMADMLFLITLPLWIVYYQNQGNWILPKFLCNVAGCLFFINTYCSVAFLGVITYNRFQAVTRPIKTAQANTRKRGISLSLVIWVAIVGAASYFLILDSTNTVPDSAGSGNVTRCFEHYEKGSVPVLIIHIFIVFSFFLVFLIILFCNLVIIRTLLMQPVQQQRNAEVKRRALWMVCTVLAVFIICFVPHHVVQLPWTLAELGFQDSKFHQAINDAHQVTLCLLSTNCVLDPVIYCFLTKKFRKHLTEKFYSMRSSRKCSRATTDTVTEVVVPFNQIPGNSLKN

As a reminder, the IC50 is the midpoint of a concentration-inhibition curve. Higher therefore signals a need for much substance. One may read the ED50 as the dose at which the effect has come halfway, by size or by number of responders. As for `COc1cc(CCc2ccc(C3=NCc4nnc(C)n4-c4sccc43)cc2)cc(OC)c1OC` [Example 1, 1-methyl-6-[4-[2-(3,4,5-trimethoxyphenyl)ethyl]phenyl]-4H-thieno[2,3-e][1,2,4]triazolo[3,4-c][1,4]diazepine], the IC50 in assay [1] was 0.22 µM; in assay [4], 12 µM. The figures for the ED50 in assay [2] and in assay [3] were 0.5 mg/kg and 0.8 mg/kg, respectively.
In the case of “1-O-alkyl-2-acetyl-sn-glyceryl-3-phosphoryl-choline [PAF]”, the “decrease in blood pressure” value in the assay on PAF-induced hypotension (100 ng/kg i.v.) is given as 30%; with PAF-induced hypotension (500 ng/kg i.v.), 52%. In addition, in the assay on PAF-induced hypotension (500 ng/kg i.v., to pre-injection blood pressure level), the recovery time was 10 min.
